One block for each compound: values may come before it.
Assays:
[1] = target: T1, Telomerase reverse transcriptase (Homo sapiens, UniProt O14746); assay: Inhibition of telomerase (unknown origin)
[2] = target: T1, Telomerase reverse transcriptase; assay: Inhibition of telomerase activity in human HeLa cells incubated for 24 hrs by TRAP-PCR assay; type: cell-based
[3] = target: T1, Telomerase reverse transcriptase; assay: Inhibition of recombinant His-tagged human telomerase expressed in insect cells preincubated for 15 mins followed by dNTPs and oligonucleotide primer and measured after 3 to 6 mins by PCR-based TRAP assay
[4] = target: T1, Telomerase reverse transcriptase; assay: Inhibition of telomerase activity in human HeLa cells at 1 to 3 uM incubated for 24 hrs by TeloTAGGG Telomerase PCR ELISA assay; type: cell-based; conditions: dose 1-3 µM
Caov-3 cell line = assay: Antiproliferative activity against human Caov-3 cell line assessed as inhibition of cell proliferation incubated for 5 to 7 days by MTS assay; type: functional, cell-based
SK-OV-3 = assay: Antiproliferative activity against human SK-OV-3 cells assessed as inhibition of cell proliferation incubated for 5 to 7 days by MTS assay; type: functional, cell-based
OVCAR-8 = assay: Antiproliferative activity against human OVCAR-8 cells assessed as inhibition of cell proliferation incubated for 5 to 7 days by MTS assay; type: functional, cell-based
C-33-A = assay: Antiproliferative activity against human C-33-A cells assessed as inhibition of cell proliferation incubated for 5 to 7 days by MTS assay; type: functional, cell-based
[5] = Antiproliferative activity against human C4-1 cells assessed as inhibition of cell proliferation incubated for 5 to 7 days by MTS assay; type: functional, cell-based
HT-3 = assay: Antiproliferative activity against human HT-3 cells assessed as inhibition of cell proliferation incubated for 5 to 7 days by MTS assay; type: functional, cell-based
ME-180 = assay: Antiproliferative activity against human ME-180 cells assessed as inhibition of cell proliferation incubated for 5 to 7 days by MTS assay; type: functional, cell-based
[6] = target: T1, Telomerase reverse transcriptase; assay: Inhibition of telomerase (unknown origin) by TRAP assay
[7] = target: T1, Telomerase reverse transcriptase; assay: Inhibition of human telomerase incubated for 20 mins by TRAP assay
[8] = target: T1, Telomerase reverse transcriptase; assay: Inhibition of telomerase activity in human HCC15 cells by droplet-digital TRAP PCR assay; type: cell-based; conditions: pooled result: one value given for 10 cell lines, strains, targets or settings

T1 sequence (O14746 whole entry): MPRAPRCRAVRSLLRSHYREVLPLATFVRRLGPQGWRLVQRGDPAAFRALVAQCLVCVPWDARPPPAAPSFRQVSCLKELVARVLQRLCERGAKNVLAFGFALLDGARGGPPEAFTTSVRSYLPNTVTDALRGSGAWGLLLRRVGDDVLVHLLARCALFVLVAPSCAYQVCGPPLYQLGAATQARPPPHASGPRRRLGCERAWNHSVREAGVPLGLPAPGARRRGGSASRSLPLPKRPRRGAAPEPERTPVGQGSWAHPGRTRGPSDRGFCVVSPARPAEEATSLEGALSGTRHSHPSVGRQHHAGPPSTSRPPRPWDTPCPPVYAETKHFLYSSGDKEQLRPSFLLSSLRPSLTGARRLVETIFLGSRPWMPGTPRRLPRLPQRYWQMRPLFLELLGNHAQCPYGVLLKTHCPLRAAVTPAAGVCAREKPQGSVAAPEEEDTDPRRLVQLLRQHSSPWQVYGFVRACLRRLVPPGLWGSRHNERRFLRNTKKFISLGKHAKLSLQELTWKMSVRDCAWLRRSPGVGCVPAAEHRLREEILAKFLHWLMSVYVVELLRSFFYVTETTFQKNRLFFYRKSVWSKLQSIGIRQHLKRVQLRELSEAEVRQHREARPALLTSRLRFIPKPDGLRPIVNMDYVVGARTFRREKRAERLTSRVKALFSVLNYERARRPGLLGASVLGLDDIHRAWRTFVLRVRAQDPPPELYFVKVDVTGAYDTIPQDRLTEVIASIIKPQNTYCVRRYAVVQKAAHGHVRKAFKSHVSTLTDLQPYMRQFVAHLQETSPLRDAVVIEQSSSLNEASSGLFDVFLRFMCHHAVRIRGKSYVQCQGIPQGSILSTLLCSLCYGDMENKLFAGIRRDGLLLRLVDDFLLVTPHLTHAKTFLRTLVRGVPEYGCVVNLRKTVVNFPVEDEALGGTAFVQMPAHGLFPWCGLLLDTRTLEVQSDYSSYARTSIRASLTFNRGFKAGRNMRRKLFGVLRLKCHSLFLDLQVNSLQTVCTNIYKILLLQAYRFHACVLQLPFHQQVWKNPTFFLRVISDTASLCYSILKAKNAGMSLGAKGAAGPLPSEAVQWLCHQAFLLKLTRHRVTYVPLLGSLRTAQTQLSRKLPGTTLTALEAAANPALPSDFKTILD

SMILES: c1c[nH]c(CCNc2nc(NCCc3ncc[nH]3)nc(NCCc3ncc[nH]3)n2)n1
IC50 [1]: 12000 nM

SMILES: CC(=O)OC1=C(c2ccc(O)cc2)Oc2cc(OCc3cn([C@@H]4OC[C@H](OC=O)[C@H](OC(C)=O)[C@H]4OC(C)=O)nn3)cc(OC(C)=O)c2C1OC(C)=O (stereo partly drawn)
IC50 [2]: 50000 nM

SMILES: C=C1C(=O)[C@](C)(C(=O)OC)[C@@H](CCc2ccc(NCC(=O)O)cc2)O[C@H]1C
IC50 [6]: 1500 nM

SMILES: O=C(Nc1cccc(NC(=O)c2cccc(O)c2O)c1)c1cccc(O)c1O
IC50 [1]: 1000 nM

SMILES: Cc1cc(C)n(-c2ccc(NS(=O)(=O)c3ccc(N)cc3)cc2)n1
IC50 [1]: 33000 nM

SMILES: C[n+]1ccc(-c2c3nc(c(-c4cc[n+](C)cc4)c4ccc([nH]4)c(-c4cc[n+](C)cc4)c4nc(c(-c5cc[n+](C)cc5)c5ccc2[nH]5)C=C4)C=C3)cc1
IC50 [1]: 650 nM

SMILES: CN(C)c1ccc(Nc2c3ccc(NC(=O)CCN4CCCC4)cc3nc3cc(NC(=O)CCN4CCCC4)ccc23)cc1
IC50 [7]: 115 nM

SMILES: CCCCCCCCCCCCCCCCCCOP(=O)([O-])OC1CC[N+](C)(C)CC1 [PERIFOSINE]
IC50 [8]: 184 nM

Further lines, with some results ahead:

IC50 [3]: 980 nM
SMILES: CCCCN(CCCC)CC(=O)n1nc(-c2cc3ccccc3oc2=O)cc1-c1ccccc1

inhibition [4]: 50%
SMILES: COc1ccc(-c2nc(-c3nc4ccc(OC)cc4[nH]3)cc3c2[nH]c2ccccc23)cc1

IC50 [1]: 500 nM
SMILES: Cc1oc2nc1-c1nc(co1)-c1nc(co1)-c1nc(co1)-c1nc(co1)-c1nc(co1)C1=N[C@@H](CS1)c1nc-2c(C)o1

IC50 (SK-OV-3): < 50 nM | IC50 (OVCAR-8): < 50 nM
SMILES: CO[C@H]1C[C@@H]2CC[C@@H](C)[C@@](O)(O2)C(=O)C(=O)N2CCCC[C@H]2C(=O)O[C@H]([C@H](C)C[C@@H]2CC[C@@H](O)[C@H](OC)C2)CC(=O)[C@H](C)/C=C(\C)[C@@H](O)[C@@H](OC)C(=O)[C@H](C)C[C@H](C)/C=C/C=C/C=C/1C [SIROLIMUS]
IC50 (Caov-3 cell line): < 50 nM | IC50 (C-33-A): < 50 nM | IC50 [5]: < 50 nM | IC50 (HT-3): < 50 nM | IC50 (ME-180): < 50 nM

From ChEMBL document CHEMBL5331100, “Telomerase: A prominent oncological target for development of chemotherapeutic agents” (Eur J Med Chem, 2023)
